The numbers were not newly measured in patent US20250170284A1, “Hydroxamic Acid Macrocyclic Agents With Pendant Chelating Moieties And Complexes Thereof” (LUMIPHORE, INC., priority 2022, published 2025), which cites them from elsewhere.

For the data set the following is noted: complex formation of the ligand with thorium(IV).

With “diethylenetriamine pentaacetic acid [DTPA]”, the “Log K1” value is recorded as 30.34.
